How the values were obtained:
[1] = test system: CD34^+ cells from PV patients; experiment: BFU-E from CD34+ cells of PV patients treated with furosemide; type: cell-based, human; conditions: 5 and 20 μg/mL of furosemide, 100% = absence of furosemide
Method: FIG. 9: CA1 protein expression and furosemide treatment of CD34^+ cells from PV patients. (A) CA1 protein expression in human CD34^+ cells from control and JAK2^V617F PV patients (left) (n=4) and (B) CA1 expression level normalized against GAPDH expression level (right). (C) Effects of 5 and 20 μg/mL of furosemide on the percentages of BFU-E from CD34^+ cells of PV patients (n=4). 100% is used as percentage of BFU-E in the absence of furosemide (N.T.). N) Relative percentage of JAK2^V617F Variant Allele Frequency (VAF) in the BFU-E after treatment with 5 and 20 ug/mL of furosemide. 100% is used as percentage of VAF in the BFU-E in the absence of furosemide (N.T.). Data are mean +/−s.e.m. Significance was assessed using unpaired 2-tailed t test and two way ANOVA followed by post-hoc analysis (*<0.05, **<0.01, ***<0.001, ****<0.0001).
Whole-transcriptome RNA-seq on CD34+ cell from Patients. The patients were selected for their high JAK2^V617F variant allele frequency (from 60 to 100% VAF). […] The RNA integrity (RNA Integrity Score>7.0) was checked on the Agilent 2100 Bioanalyzer (Agilent) and quantity was determined using Qubit (Invitrogen). […]

[2] = test system: ICN1 leukemic cells; experiment: ICN1 leukemia in vivo survival; set-up: species or system mouse
Method: ICN1 leukemia. Non-conditioned C57BL/6J (CD45.2) recipient mice were intravenously transplanted with 1.5×10^4 ICN1 leukemic cells in 100 uL of PBS. Seven days after transplantation, when blast cells are detected in the peripheral blood, recipient mice were daily treated or not by intravenous injection of furosemide at 20 mg/Kg.

[3] = test system: mice transplanted with JAK2^V617F BM cells; experiment: Single irradiated-leg mouse model of Polycythemia Vera, pharmacologic treatment; type: in vivo
Text: Mice. The conditional flexed Jak2^V617F KI mice (Hasan et al.; Blood 122, 1464-1477; 2013) were crossed with VavCre transgenic (TG) mice (Croker et al., SOCS3 Is a Critical Physiological Negative Regulator of G-CSF Signaling and Emergency Granulopoiesis. Immunity 20, 153-165 (2004)) to express the mutant Jak2. To easily evaluate allele burden in kinetic experiments, Jak2^V617F KI/VavCre mice were also crossed with UbiGFP TG mice in Gustave Roussy' animal facilities. For one-leg transplantation, F1 crossed B6.SJL/BoyJ (CD45.1)×C57BL/6J (CD45.2) mice were used as recipient mice. All mice were housed in a specific pathogen-free section at an animal facility of CEA/DRF/IBFJ/iRCM according to the institutional guidelines and French Ministry of Agriculture's regulations.
One leg irradiation and transplantation. Recipient mice were anesthetized with ketamine-xylazine and their leg was fixed on a tray with only the leg left towards the opposite side to their body. The tray was put in the radiation field of a GSRD1 radiation equipment. The mouse body was shielded from irradiation with lead plates and the leg was irradiated at 2×5 Gy with an interval of 17 h. Bone marrow (BM) cells (1×10^7) were intravenously transplanted into the irradiated mice 7 hours after the second irradiation. For barcode and shRNA experiments, 10,000 transduced Lin^−Scal^+cKit^+ (LSK) hematopoietic cells were intrafemorally transplanted into irradiated leg under Isoflurane anesthetic.
Blood analysis. Blood was collected and analyzed through a hemocytometer (CD3700, ABBOTT). The rest of blood was subjected to hemolysis by using an ammonium chloride solution ([…]). The hemolyzed blood were stained with antibodies against CD45.1 (A20) and CD45.2 (104) and analyzed through flow cytometry to examine blood chimerism.
BM cells (femur and tibia) of irradiated leg and of non-irradiated leg were harvested by flushing with 1 mL of PBS. After centrifugation, BM supernatants were collected and kept at -80° C. with anti-protease (ROCHE) for chemokine analyses. BM cells were suspended in PBS and splenocytes were also collected in PBS by crushing spleen on a 70 μm filter. Before hemolysis, cells were stained with Ter119 (TER-119) and CD71 (C2) antibodies for the examination of erythroid compartments. The rest of cells were hemolyzed and stained for analyses of granulocytes, hematopoictic progenitor cells (HPCs) and hematopoietic stem cells (HSCs) by using antibodies against CD45.1 (A20), CD45.2 (104), CD11b (M1/70), Gr-1 (RB6-8C5), c-Kit (2B6), Sca-1 (D7 or E13-161.7), CD34 (RAM34 or MEC14.7), CD16/32 (93), CD48 (HM48-1) and CD150 (TC15-12F12.2). […] For cell cycle analyses, stained HSPCs were permeabilized with Cytofix/Cytoperm buffer following manufacturer's instructions (BD Biosciences) and labelled with anti-Ki67 antibody (SolA15) and Hoechst 33342. All antibodies were purchased from BioLegend, eBioscience, or BD Biosciences. Flow cytometry analyses were performed through FACS Canto II (BD Biosciences) and LSR II (BD Biosciences), and cell sorting was conducted by using FACS Aria II (BD Biosciences). Analyses were performed with the FlowJo software (TRISTAR) and illustrated with the Prism7 software (GraphPad).
Pharmacologic treatment. Furosemide was purchased from Sigma (MKCF8657), dissolved in DMSO for stock solution (50 mg/mL) and diluted in PBS solution prior to use. […] Spironolactone (SIGMA) was prepared in water bottles at 250 mg/Kg to treat recipient mice as described (Rafael-Fortney et al., Early treatment with lisinopril and spironolactone preserves cardiac and skeletal muscle in duchenne muscular dystrophy mice »; Circulation, 2011; 124:582-8). Acetozolamide was purchased from SIGMA (A6011), dissolved in PBS and solubilized with NaOH (35%) until complete dissolution of the product.

SMILES | JAK2^V617F variant allele frequency in the BFU-E [1] | percentages of BFU-E ([1]; n=4) | survival rate ([2]; furosemide 20 mg/Kg daily intravenous, starting 1 week after transplantation of 1.5×10^4 ICN1 leukemic cells (FIG. 7)) | in vivo leukemia progression ([2]; furosemide daily, starting 1 week after transplantation (FIG. 7)) | therapeutic effect (blood chimerism, spleen weight) ([3]; furosemide 5 mg/Kg daily, starting two weeks after transplantation, compared with 20 mg/Kg (FIG. 8)) | survival rate ([3]; furosemide 20 mg/Kg daily intravenous, starting 2 weeks after transplantation (FIG. 4i)) | JAK2^V617F cell burden in blood ([3]; furosemide 20 mg/Kg daily intravenous, starting 2 weeks after transplantation of JAK2^V617F BM cells (FIG. 4g)) | spleen weight ([3]; furosemide 20 mg/Kg daily intravenous, starting 2 weeks after transplantation, 8 weeks later (FIG. 4h)) | PV blood parameters ([3]; furosemide 20 mg/Kg daily intravenous, starting 2 weeks after transplantation, hematocrit and red blood cells count) | JAK2^V617F LT-HSC contribution to the LT-HSC compartment ([3]; furosemide after PV establishment, before treatment (10 weeks) vs end of treatment (31 weeks) (FIG. 4m)) | survival ([3]; furosemide daily after PV establishment, starting 10 weeks after transplantation) | blood JAK2^V617F cell burden ([3]; furosemide daily after PV establishment, starting 10 weeks after transplantation (FIG. 4j)) | hematocrit ([3]; furosemide daily after PV establishment, starting 10 weeks after transplantation (FIG. 4k)) | spleen weight ([3]; furosemide daily after PV establishment, starting 10 weeks after transplantation (FIG. 4l)) | PV associated symptoms ([3]; spironolactone 250 mg/Kg in water bottles, starting 2 weeks after transplantation) | survival of mice with PV ([3]; spironolactone 250 mg/Kg in water bottles, starting 2 weeks after transplantation (FIG. 5d))
NS(=O)(=O)c1cc(C(=O)O)c(NCc2ccco2)cc1Cl [Furosemide, 4-chloro-2-(furan-2-ylmethylamino)-5-sulfamoylbenzoic acid] | decreased | decreased | improved survival rate is also reproduced | Slowing | therapeutic effect similar to the one obtained with 20 mg/Kg | improved | decreased | decreased | decreased | significant decrease | survival of the treated mice | rapid, stable and Furosemide-dependent decrease | decreased | decreased | – | –
CC(=O)S[C@@H]1CC2=CC(=O)CC[C@]2(C)[C@H]2CC[C@@]3(C)[C@@H](CC[C@@]34CCC(=O)O4)[C@H]12 [Spironolactone] | – | – | – | – | – | – | – | – | – | – | – | – | – | – | no effect | no effect
